These results are taken from patent publication US20260232812A1, “BIFUNCTIONAL MOLECULES FOR TARGETED PROTEIN DEGRADATION” (Amphista Therapeutics Limited, priority 2022, published 2026).

In the test the target is T1, BRD4 (Homo sapiens, UniProt O60885).
T1 construct: HEK293 containing a HiBit insertion for BRD4; endogenous in cells; host or cells: HEK293 with a HiBiT insertion for BRD4
As to the kind of experiment: Assay 1 - Degradation of HiBit-BRD4 in HEK293. Format: cell-based. Conditions: HiBit-BRD4 in HEK293, 6 h treatment. On the procedure: 1.1 Assay 1-Degradation of HiBit-BRD4 in HEK293
HEK293 containing a HiBit insertion for BRD4 were plated in 384-well tissue culture plates at a density of 8×10^4 per well in a volume of 36 μL and incubated overnight at 37° C. and 5% CO2. Wells were treated with test compounds for 6 h prior to addition of the NanoLuc substrate and reading on a […]. Degradation data was plotted and analysed using […] (Graphpad).

In the case of `CC(=O)N1c2ccc(-c3ccc(C(=O)NCCOCCOCCOCCOCCOCCNC(=O)C4CCCN(C(=O)/C(C#N)=C/C(C)(C)CN5CCOCC5)C4)cc3)cc2[C@H](Nc2ccc(Cl)cc2)C[C@@H]1C` (stereo partly shown) [Example 13e], the DC50 – broadly, the midpoint of the concentration-degradation curve – was > 200 nM and the Dmax (commonly the greatest extent of degradation seen) was 30 to 50%.
For `CC(=O)N1c2ccc(-c3ccc(C(=O)NCCOCCOCCOCCOCCOCCNC(=O)[C@@H]4CN(C(=O)/C(C#N)=C/c5ccc(F)cc5)C[C@H]4C4CCCCC4)cc3)cc2[C@H](Nc2ccc(Cl)cc2)C[C@@H]1C` [Example 15s], the DC50 is 25 to 200 nM and the Dmax was in the range of 50 to 70%.
On the same counts, the results for `CC(=O)N1c2ccc(-c3ccc(C(=O)NCCOCCOCCOCCOCCOCCNC(=O)C4CC(c5cccc(C)c5)CN(C(=O)/C(C#N)=C/C(C)(C)CN5CCOCC5)C4)cc3)cc2[C@H](Nc2ccc(Cl)cc2)C[C@@H]1C` (stereo partly shown) [Example 13ax] are < 25 nM and ≥ 70%.
Consider `CC(=O)N1c2ccc(-c3ccc(C(=O)NCCOCCOCCOCCOCCOCCNC(=O)C4CC(c5ccccc5)CN(C(=O)/C(C#N)=C/c5ccc(F)cc5)C4)cc3)cc2[C@H](Nc2ccc(Cl)cc2)C[C@@H]1C` (stereo partly shown) [Example 13ac], for which the DC50 was in the range of 25 to 200 nM and the Dmax was ≥ 70%.
As for `CC(=O)N1c2ccc(-c3ccc(C(=O)NCCOCCOCCOCCOCCOCCNC(=O)[C@@H]4CN(C(=O)/C(C#N)=C/C(C)(C)C)C[C@H]4c4ccc(F)cc4)cc3)cc2[C@H](Nc2ccc(Cl)cc2)C[C@@H]1C` [Example 15af], the DC50 was 25 to 200 nM and the Dmax was ≥ 70%.
For the compound `CC(=O)N1c2ccc(-c3ccc(C(=O)NCCOCCOCCOCCOCCOCCNC(=O)C4CC(c5ccc(C(F)(F)F)cc5)CN(C(=O)/C(C#N)=C/C(C)(C)CN5CCOCC5)C4)cc3)cc2[C@H](Nc2ccc(Cl)cc2)C[C@@H]1C` (stereo partly shown) [Example 13an], the DC50 lay within 25 to 200 nM and the Dmax lay in the range of 30 to 50%.
As for `CC(=O)N1c2ccc(-c3ccc(C(=O)NCCOCCOCCOCCOCCOCCNC(=O)[C@@H]4CN(C(=O)/C(C#N)=C/c5ccc(F)cc5)C[C@H]4c4ccccc4)cc3)cc2[C@H](Nc2ccc(Cl)cc2)C[C@@H]1C` [Example 15x], the DC50 is > 200 nM and the Dmax lay in the range of 30 to 50%.
The matching figures for `COc1ccc(C2CC(C(=O)NCCOCCOCCOCCOCCOCCNC(=O)c3ccc(-c4ccc5c(c4)[C@H](Nc4ccc(Cl)cc4)C[C@H](C)N5C(C)=O)cc3)CN(C(=O)/C(C#N)=C/c3ccc(F)cc3)C2)cc1` (stereo partly shown) [Example 13ah]: 25 to 200 nM and ≥ 70%.
Regarding `COc1ccc(C2CC(C(=O)NCCOCCOCCOCCOCCOCCNC(=O)c3ccc(-c4ccc5c(c4)[C@H](Nc4ccc(Cl)cc4)C[C@H](C)N5C(C)=O)cc3)CN(C(=O)/C(C#N)=C/C(C)(C)CN3CCOCC3)C2)cc1` (stereo partly shown) [Example 13ai], the DC50 was > 200 nM and the Dmax lay within 30 to 50%.
On to `CC(=O)N1c2ccc(-c3ccc(C(=O)NCCOCCOCCOCCOCCOCCNC(=O)C4CCCN(C(=O)/C(C#N)=C/c5ccc(F)cc5)C4)cc3)cc2[C@H](Nc2ccc(Cl)cc2)C[C@@H]1C` (stereo partly shown) [Example 13d], for which the DC50 is > 200 nM and the maximal degradation (Dmax) lay in the range of 30 to 50%.
`CC(=O)N1c2ccc(-c3ccc(C(=O)NCCOCCOCCOCCOCCOCCNC(=O)C4CC(c5ccccc5)CN(C(=O)/C(C#N)=C/C(C)(C)C)C4)cc3)cc2[C@H](Nc2ccc(Cl)cc2)C[C@@H]1C` (stereo partly shown) [Example 13aa]: the DC50 is > 200 nM and the Dmax was ≥ 70%.
The matching figures for `CC(=O)N1c2ccc(-c3ccc(C(=O)NCCOCCOCCOCCOCCOCCNC(=O)C4CC(C(C)C)CN(C(=O)/C(C#N)=C/c5ccc(F)cc5)C4)cc3)cc2[C@H](Nc2ccc(Cl)cc2)C[C@@H]1C` (stereo partly shown) [Example 13n]: > 200 nM and 50 to 70%.
Consider `CC(=O)N1c2ccc(-c3ccc(C(=O)NCCOCCOCCOCCOCCOCCNC(=O)[C@@H]4CN(C(=O)/C(C#N)=C/C(C)(C)C)C[C@H]4C4CCCCC4)cc3)cc2[C@H](Nc2ccc(Cl)cc2)C[C@@H]1C` [Example 15q], for which the DC50 fell in the range of 25 to 200 nM and the Dmax was ≥ 70%.
On the same counts, the results for `COc1ccc([C@@H]2CN(C(=O)/C(C#N)=C/c3ccc(F)cc3)C[C@H]2C(=O)NCCOCCOCCOCCOCCOCCNC(=O)c2ccc(-c3ccc4c(c3)[C@H](Nc3ccc(Cl)cc3)C[C@H](C)N4C(C)=O)cc2)cc1` [Example 15ac] are > 200 nM and < 50%.
As for `CC(=O)N1c2ccc(-c3ccc(C(=O)NCCOCCOCCOCCOCCOCCNC(=O)[C@@H]4CN(C(=O)/C(C#N)=C/c5ccc(F)cc5)C[C@H]4c4ccc(F)cc4)cc3)cc2[C@H](Nc2ccc(Cl)cc2)C[C@@H]1C` [Example 15ah], the 50% degradation concentration (DC50) was > 200 nM and the Dmax was in the range of 30 to 50%.
The matching figures for `CC(=O)N1c2ccc(-c3ccc(C(=O)NCCOCCOCCOCCOCCOCCNC(=O)C4CC(C(C)C)CN(C(=O)/C(C#N)=C/c5nccs5)C4)cc3)cc2[C@H](Nc2ccc(Cl)cc2)C[C@@H]1C` (stereo partly shown) [Example 13k]: < 25 nM and ≥ 70%.
The matching figures for `CC(=O)N1c2ccc(-c3ccc(C(=O)NCCOCCOCCOCCOCCOCCNC(=O)C4CC(C5CC5)CN(C(=O)/C(C#N)=C/c5nccs5)C4)cc3)cc2[C@H](Nc2ccc(Cl)cc2)C[C@@H]1C` (stereo partly shown) [Example 13u]: < 25 nM and ≥ 70%.
On the same counts, the results for `CC(=O)N1c2ccc(-c3ccc(C(=O)NCCOCCOCCOCCOCCOCCNC(=O)C4CC(c5cccc(C)c5)CN(C(=O)/C(C#N)=C/c5ccn(C)n5)C4)cc3)cc2[C@H](Nc2ccc(Cl)cc2)C[C@@H]1C` (stereo partly shown) [Example 13av] are > 200 nM and 50 to 70%.
Take `COc1ccc(C2CC(C(=O)NCCOCCOCCOCCOCCOCCNC(=O)c3ccc(-c4ccc5c(c4)[C@H](Nc4ccc(Cl)cc4)C[C@H](C)N5C(C)=O)cc3)CN(C(=O)/C(C#N)=C/c3nccs3)C2)cc1` (stereo partly shown) [Example 13ae]: the DC50 is 25 to 200 nM and the Dmax is ≥ 70%.
With `COc1ccc([C@@H]2CN(C(=O)/C(C#N)=C/C(C)(C)C)C[C@H]2C(=O)NCCOCCOCCOCCOCCOCCNC(=O)c2ccc(-c3ccc4c(c3)[C@H](Nc3ccc(Cl)cc3)C[C@H](C)N4C(C)=O)cc2)cc1` [Example 15aa], the DC50 lay within 25 to 200 nM and the Dmax is ≥ 70%.
The matching figures for `CC(=O)N1c2ccc(-c3ccc(C(=O)NCCOCCOCCOCCOCCOCCNC(=O)[C@@H]4CN(C(=O)/C(C#N)=C/c5ccc(F)cc5)C[C@H]4C(C)C)cc3)cc2[C@H](Nc2ccc(Cl)cc2)C[C@@H]1C` [Example 15i]: > 200 nM and 50 to 70%.
For the compound `CC(=O)N1c2ccc(-c3ccc(C(=O)NCCOCCOCCOCCOCCOCCNC(=O)[C@@H]4CN(C(=O)/C(C#N)=C/C(C)(C)C)C[C@H]4C(C)C)cc3)cc2[C@H](Nc2ccc(Cl)cc2)C[C@@H]1C` [Example 15g], the DC50 fell in the range of 25 to 200 nM and the Dmax is ≥ 70%.
On the same counts, the results for `CC(=O)N1c2ccc(-c3ccc(C(=O)NCCOCCOCCOCCOCCOCCNC(=O)[C@@H]4CN(C(=O)/C(C#N)=C/c5nccs5)C[C@H]4c4ccccc4)cc3)cc2[C@H](Nc2ccc(Cl)cc2)C[C@@H]1C` [Example 15u] are 25 to 200 nM and 50 to 70%.
Take `CC(=O)N1c2ccc(-c3ccc(C(=O)NCCOCCOCCOCCOCCOCCNC(=O)C4CC(C5CCCCC5)CN(C(=O)/C(C#N)=C/C(C)(C)C)C4)cc3)cc2[C@H](Nc2ccc(Cl)cc2)C[C@@H]1C` (stereo partly shown) [Example 13q]: the DC50 fell in the range of 25 to 200 nM and the Dmax was in the range of 50 to 70%.
The matching figures for `CC(=O)N1c2ccc(-c3ccc(C(=O)NCCOCCOCCOCCOCCOCCNC(=O)[C@@H]4CN(C(=O)/C(C#N)=C/c5nccs5)C[C@H]4C4CCCCC4)cc3)cc2[C@H](Nc2ccc(Cl)cc2)C[C@@H]1C` [Example 15p]: 25 to 200 nM and ≥ 70%.
On the same counts, the results for `CC(=O)N1c2ccc(-c3ccc(C(=O)NCCOCCOCCOCCOCCOCCNC(=O)[C@@H]4CN(C(=O)/C(C#N)=C/c5nccs5)C[C@H]4C(C)C)cc3)cc2[C@H](Nc2ccc(Cl)cc2)C[C@@H]1C` [Example 15f] are > 200 nM and 30 to 50%.
On to `CC(=O)N1c2ccc(-c3ccc(C(=O)NCCOCCOCCOCCOCCOCCNC(=O)[C@@H]4CN(C(=O)/C(C#N)=C/C(C)(C)C)C[C@H]4C)cc3)cc2[C@H](Nc2ccc(Cl)cc2)C[C@@H]1C` [Example 15b], for which the DC50 lay within 25 to 200 nM and the Dmax was ≥ 70%.
On the same counts, the results for `CC(=O)N1c2ccc(-c3ccc(C(=O)NCCOCCOCCOCCOCCOCCNC(=O)[C@@H]4CN(C(=O)/C(C#N)=C/C(C)(C)CN5CCOCC5)C[C@H]4C4CCCCC4)cc3)cc2[C@H](Nc2ccc(Cl)cc2)C[C@@H]1C` [Example 15t] are 25 to 200 nM and ≥ 70%.
On the same counts, the results for `CC(=O)N1c2ccc(-c3ccc(C(=O)NCCOCCOCCOCCOCCOCCNC(=O)[C@@H]4CN(C(=O)/C(C#N)=C/c5ccn(C)n5)C[C@H]4C4CCCCC4)cc3)cc2[C@H](Nc2ccc(Cl)cc2)C[C@@H]1C` [Example 15r] are > 200 nM and 50 to 70%.
`CC(=O)N1c2ccc(-c3ccc(C(=O)NCCOCCOCCOCCOCCOCCNC(=O)C4CC(C5CCCCC5)CN(C(=O)/C(C#N)=C/c5nccs5)C4)cc3)cc2[C@H](Nc2ccc(Cl)cc2)C[C@@H]1C` (stereo partly shown) [Example 13p]: the DC50 is < 25 nM and the Dmax is ≥ 70%.
On the same counts, the results for `CC(=O)N1c2ccc(-c3ccc(C(=O)NCCOCCOCCOCCOCCOCCNC(=O)C4CC(c5cccc(C)c5)CN(C(=O)/C(C#N)=C/c5ccc(F)cc5)C4)cc3)cc2[C@H](Nc2ccc(Cl)cc2)C[C@@H]1C` (stereo partly shown) [Example 13aw] are > 200 nM and < 50%.
On the same counts, the results for `COc1ccc(C2CC(C(=O)NCCOCCOCCOCCOCCOCCNC(=O)c3ccc(-c4ccc5c(c4)[C@H](Nc4ccc(Cl)cc4)C[C@H](C)N5C(C)=O)cc3)CN(C(=O)/C(C#N)=C/C(C)(C)C)C2)cc1` (stereo partly shown) [Example 13af] are 25 to 200 nM and 50 to 70%.
